This note sets out measurements from US9365614B2, “IAP BIR domain binding compounds” (priority 2006, dated 2016).

Read-outs that look alike come from different tables or passages of the source.

Test [1] concerns MDA-MB231 cells. The test can be described thus: Survival MTT assay, MDA-MB-231. In kind it is cell-based. The note with it: Homo sapiens, 72 h. As for the experimental part:
(§1) One day prior the treatment with compound, 2000 to 4000 cells per well were plated in a tissue culture treated 96 well format dish with 100 ul of media and incubated at 37° C., 5% CO2. On the day of compound treatment, compounds were diluted with cell culture media to a working stock concentration of 2×. 100 uL of diluted compound were then added to each well. The treated plate was incubated for 72 h at 37° C., 5% CO2. Upon incubation, the cell viability was assessed as followed 20 uL of MTT reagent at 5 mg/ml were added per well to cell plate. The plate was incubated for 2 h at 37° C. in presence of 5% CO2. The supernatant was then removed from the plate and 100 uL of isopropanol were added. The absorbance was measured in a TECAN spectrophotometer at 570 nm. The percentage of viability was expressed in percentage of the signal obtained with non treated cells.
Background: Tetrazolium dyes change colour on reduction, which living cells bring about.

Test [2] has as its system SKOV-3 cells. As to the kind of experiment: Survival MTT assay, SKOV-3. In kind it is cell-based. To be noted: Homo sapiens, SK-OV-3, 72 h. The protocol: as §1
Test [3] relates to H460 (lung) cells. The test can be described thus: Survival assay with TRAIL, H460. In kind it is cell-based. The note with it: Homo sapiens, NCI-H460; in the presence of TRAIL (1-3 ng/mL). The protocol:
MDA-MD-231 (breast) and H460 (lung) cancer cells were cultured in RPMI1640 media supplemented with 10% FBS and 100 units/mL of Penicillin and Steptomycin.
(§2) Survival assays were performed on various cell lines including MDA-MB-231, SKOV3, H460, PC3, HCT-116, and SW480 cells. Cells were seeded in 96 well plates at a respective density of 5000 and 2000 cells per well and incubated at 37° C. in presence of 5% CO2 for 24 hours. Selected compounds were diluted into the media at various concentration ranging from 0.01 uM up to 100 uM. Diluted compounds were added onto the MDA-MB-231 cells. For the MDA-MB-231 SKOV3, H460, PC3, HCT-116, and SW480 cells, the compounds were added either alone or in presence of 1-3 ng/ml of TRAIL. After 72 hours cellular viability was evaluated by MTS based assays. A solution of [3-(4,5-dimethylthiazol-2-yl)-5-(3-carboxymethoxyphenyl)-2-(4-sulfophenyl)-2H-tetrazolium, inner salt; MTS] was added onto cells for a period of 1 to 4 hours. Upon incubation the amount of converted MTS was evaluated using a Tecan spectrophotometer set at 570 nm.

Test [4] concerns HELA (cervical) cells. As to the kind of experiment: Survival assay with TRAIL, HELA. In kind it is cell-based. To be noted: Homo sapiens, in the presence of TRAIL (1-3 ng/mL). The protocol:
as §2

Test [5] relates to HCT116 (colon) cells. As to the kind of experiment: Survival assay with TRAIL, HCT116. The note with it: Homo sapiens, HCT-116; in the presence of TRAIL (1-3 ng/mL). In kind it is cell-based. The protocol:
as §2

The test system of test [6] is HEY (ovarian) cells. As to the kind of experiment: Survival assay with TRAIL, HEY. In kind it is cell-based. The note with it: in the presence of TRAIL (1-3 ng/mL). As for the experimental part:
as §2

The subject of test [7] is PC3 cells. The test can be described thus: Survival assay (MTS), PC3. In kind it is cell-based. To be noted: Homo sapiens, PC-3; in the presence of TRAIL (1-3 ng/ml). As for the experimental part:
as §2

For test [8], the target named is T1, XIAP linker BIR2-BIR3-ring (GST-linker BIR 2 BIR3Ring) (Homo sapiens, UniProt P98170).
T1 construct: made in house; host or cells: E. coli DH5-alpha
T1 sequence (P98170 93-497): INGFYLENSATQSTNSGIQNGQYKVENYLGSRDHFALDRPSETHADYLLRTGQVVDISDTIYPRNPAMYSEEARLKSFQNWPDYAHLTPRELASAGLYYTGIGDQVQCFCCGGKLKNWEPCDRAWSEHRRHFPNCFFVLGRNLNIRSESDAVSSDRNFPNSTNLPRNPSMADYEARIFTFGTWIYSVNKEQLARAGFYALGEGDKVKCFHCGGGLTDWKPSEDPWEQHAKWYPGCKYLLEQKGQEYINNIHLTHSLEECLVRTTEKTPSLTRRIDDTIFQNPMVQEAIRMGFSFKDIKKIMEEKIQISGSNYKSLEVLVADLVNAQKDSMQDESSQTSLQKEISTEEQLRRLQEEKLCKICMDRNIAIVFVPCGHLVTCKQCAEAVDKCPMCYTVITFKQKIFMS
As to the kind of experiment: Fluorescence polarization competition assay, BIR2-BIR3-ring, probe P2. In kind it is binding. To be noted: BIR2-BIR3-ring FP assay. From the text:
GST-linker BIR 2 BIR3Ring: XIAP coding sequence from amino acids 93-497 cloned into PGex4T1 via BamH1 and XhoI. Amino acids 93-497 were amplified from full length XIAP in pGex4t3, using the primers: […] (SEQ ID NO: 7) and GCTGCATGTGTGTCAGAGG (SEQ ID NO: 8), using standard PCR conditions. The PCR fragment was TA cloned into pCR-2.1 (invitrogen). Linker BIR 2 BIR 3Ring was subcloned into pGex4T1 by BamHI/XhoI digestion. The plasmid was transformed into E. coli DH5a for use in protein expression and purification.
For all assays, the fluorescence and fluorescence-polarization was evaluated using a Tecan Polarion instrument with the excitation filter set at 485 nm and the emission filter set at 535 nm. […] Upon establishing these conditions, the compounds potency (IC50) and selectivity, was assessed in the presence of a fix defined-amount of target protein and fluorescent probe and a 10 point serial dilution of the selected compounds. […] Auto-fluorescence for each compound was first assessed by performing a reading of the compound/BSA solution alone. Then 25 uL of the fluorescein probe diluted into 50 mM MES containing 0.05 mg/ml BSA were added and a reading to detect quenching of fluorescein signal done. […]
The ki of various compounds in the BIR2-BIR3-ring FP assay, using probe P2, was determined as described above.
For orientation: Fluorescence polarisation rises when a labelled molecule tumbles more slowly, as on binding a larger partner.

For test [9], the system named is OVCAR-3 (ovarian) cells. As to the kind of experiment: Survival assay with TRAIL, OVCAR-3. In kind it is cell-based. The note with it: Homo sapiens, in the presence of TRAIL (1-3 ng/mL).

The EC50 is the concentration at which the effect is half-maximal. Consider `CN[C@@H](C)C(=O)N[C@H](C(=O)N1C[C@@H](OCC#CC#CCO[C@H]2C[C@@H](C(=O)N[C@@H]3CCCc4ccccc43)N(C(=O)[C@@H](NC(=O)[C@H](C)NC)C(C)(C)C)C2)C[C@H]1C(=O)N[C@@H]1CCCc2ccccc21)C(C)(C)C` [Compound 1], for which the half-maximal effective concentration (EC50) in [1] and in test [2] (read-out: SKOV-3 EC50) was less than 50 nM each time.

As for `CN[C@@H](C)C(=O)N[C@H](C(=O)C1C[C@@H](NC(=O)CCCCCCCCC(=O)N[C@H]2C[C@@H](C(=O)N[C@@H]3CCCc4ccccc43)N(C(=O)[C@@H](NC(=O)[C@H](C)NC)C(C)(C)C)C2)C[C@H]1C(=O)N[C@@H]1CCCc2ccccc21)C(C)(C)C` (some centres unmarked) [Compound 2], the EC50 in [1] and in [2] (read-out: SKOV-3 EC50) was less than 50 nM throughout.

As usually defined, the Ki is a measure of affinity in units of concentration, obtained from inhibition or displacement. Higher therefore signals lower affinity. Regarding `CN[C@@H](C)C(=O)N[C@H](C(=O)N1C[C@@H](NC(=O)c2ccc(C(=O)N[C@H]3C[C@@H](C(=O)N[C@@H]4CCCc5ccccc54)N(C(=O)[C@@H](NC(=O)[C@H](C)NC)C(C)(C)C)C3)cc2)C[C@H]1C(=O)N[C@@H]1CCCc2ccccc21)C(C)(C)C` [Compound 3], the EC50 was less than 50 nM in [1]; less than 1000 nM in test [3]; 1 nM in [2] (read-out: EC50 against SKOV3); less than 1000 nM in test [4]; less than 1000 nM in test [5]; less than 1000 nM in test [6]. The EC50 in test [7] and in [9] was less than 1000 nM throughout. The compound also displayed an inhibition constant Ki in test [8] of less than 100 nM.

The compound `CC(C)(C)[C@H](NC(=O)[C@@H](N)CO)C(=O)N1C[C@@H](OCC#CC#CCO[C@H]2C[C@@H](C(=O)N[C@@H]3CCCc4ccccc43)N(C(=O)[C@@H](NC(=O)[C@@H](N)CO)C(C)(C)C)C2)C[C@H]1C(=O)N[C@@H]1CCCc2ccccc21` [Compound 5] gave a concentration for a half-maximal effect (EC50) in test [1] of more than 1000 nM.

In the case of `CN[C@@H](C)C(=O)N[C@H](C(=O)N1C[C@@H](CC(=O)c2ccc3ccc(C(=O)N[C@H]4C[C@@H](C(=O)N[C@@H]5CCCc6ccccc65)N(C(=O)[C@@H](NC(=O)[C@H](C)NC)C(C)(C)C)C4)cc3c2)C[C@H]1C(=O)N[C@@H]1CCCc2ccccc21)C(C)(C)C` [Compound 57], in test [2] (read-out: SKOV-3 EC50), the EC50 is less than 50 nM.

With `CN[C@@H](C)C(=O)N[C@H](C(=O)N1C[C@@H](NS(=O)(=O)c2ccc3ccc(S(=O)(=O)N[C@H]4C[C@@H](C(=O)N[C@@H]5CCCc6ccccc65)N(C(=O)[C@@H](NC(=O)[C@H](C)NC)C(C)(C)C)C4)cc3c2)C[C@H]1C(=O)N[C@@H]1CCCc2ccccc21)C(C)(C)C` [Compound 58], in test [2] (read-out: SKOV-3 EC50), the EC50 was less than 250 nM.

Consider `CN[C@@H](C)C(=O)N[C@H](C(=O)N1C[C@@H](NC(=O)c2ccc(C(=O)N[C@H]3C[C@@H](C(=O)N[C@H](CO)c4ccccc4)N(C(=O)[C@@H](NC(=O)[C@H](C)NC)C(C)(C)C)C3)cc2)C[C@H]1C(=O)N[C@H](CO)c1ccccc1)C(C)(C)C` [Compound 59], for which the EC50 in test [2] (read-out: SKOV-3 EC50) is less than 250 nM.

As to `CN[C@@H](C)C(=O)N[C@H](C(=O)N1C[C@@H](NC(=O)c2ccc(C(=O)N[C@H]3C[C@@H](C(=O)NCc4ccccc4-c4ccccc4)N(C(=O)[C@@H](NC(=O)[C@H](C)NC)C(C)(C)C)C3)cc2)C[C@H]1C(=O)NCc1ccccc1-c1ccccc1)C(C)(C)C` [Compound 60], the EC50 in test [2] (read-out: SKOV-3 EC50) is less than 50 nM.

Take `CN[C@@H](C)C(=O)N[C@H](C(=O)N1C[C@@H](NC(=O)c2ccc(C(=O)N[C@H]3C[C@@H](C(=O)NC4Cc5ccccc5C4)N(C(=O)[C@@H](NC(=O)[C@H](C)NC)C(C)(C)C)C3)cc2)C[C@H]1C(=O)NC1Cc2ccccc2C1)C(C)(C)C` [Compound 61]: the EC50 in [2] (read-out: SKOV-3 EC50) was less than 50 nM.

Take `CN[C@@H](C)C(=O)N[C@H](C(=O)N1C[C@@H](NC(=O)c2ccc(C(=O)N[C@H]3C[C@@H](C(=O)N[C@H](COCc4ccccc4)c4ccccc4)N(C(=O)[C@@H](NC(=O)[C@H](C)NC)C(C)(C)C)C3)cc2)C[C@H]1C(=O)N[C@H](COCc1ccccc1)c1ccccc1)C(C)(C)C` [Compound 64]: in test [2] (read-out: SKOV-3 EC50), the EC50 was less than 50 nM.
